Data as given in patent US9695182B2, “Chemical compounds (derivatives) and their application for the treatment of oncological diseases” (LIMITED LIABILITY COMPANY “NATIONAL PHARMACEUTICAL …, priority 2013, dated 2017).

Experiments:
[1] = tested on: Karpas-299; experiment: Antiproliferative activity on KARPAS-299 cells (MTS); assay type: cell-based; details: Homo sapiens, concentration at which the number of living cells is reduced 2-fold compared with absence of compound
Method: Furthermore, antiproliferative activity of the compounds of this invention can be studied on cell lines KARPAS-299 of anaplastic large cell lymphoma according to the following procedure. KARPAS-299 cells cultured in RPMI 1640 growth medium, are transferred in duplicate to 96-well culture plate (10,000 cells per well) and a solution of the analytes in a growth medium is added to them at various concentrations (final volume in each well—100 μl). The solids were dissolved in DMSO and then the solution was diluted with DMSO to the desired concentration, mixed with an equal volume of growth medium and transferred to wells with the cells. The final concentration of compounds ranged from 0.5 nM to 10 μM. DMSO was used as a control (in the same amount as that of adding solutions of substances). After the cells incubation with the compounds for 72 hours, the number of viable cells was determined. For this purpose, old medium was removed, 100 μl of fresh medium and 40 μl of MTS solution, containing 5 mg/ml PBS were added to each well. The plate was incubated for 2 hours at 37° C., then 100 μl of DMSO was added to each well and mixed for 1 minute. Then, the optical density was determined at 490 nm and percentage of inhibition of proliferation was calculated in comparison with the control (containing no analytes).

[2] = tested on: NCI-H3122 cells; experiment: Efficacy in animal model of non-small cell lung cancer (NCI-H3122 tumors); assay type: in vivo, male athymic mice; details: 30 mg/kg daily by gavage, 20 days; ratio of average tumor volume treatment/control
Method: The male athymic mice were used for the studies. NCI-H3122 cells in an amount of 1×10^7 were administered in the form of 0.2 ml Matrigel solution (BD Pharmingen) in the left leg of the mouse under ketamine-xylazine anesthesia. One week after cells injection mice were divided into the treatment and control groups and randomized by tumor size. Tumor volume was calculated according to the formula V=0.5×W^2×L. The control animals received daily 0.3 ml of 0.5% of methylcellulose solution, animals of the treatment group −0.3 ml of 0.5% of methylcellulose suspension containing the drug in a test dose. The solutions were administered by gavage. The treatment continued for 20 days. The ratio of the average volume for the treatment/control groups (% T/C) was calculated after treatment to determine the effectiveness of inhibition of tumor growth. The analysis of the statistical significance using Dunnett's test was performed for the data collection. Effectiveness of the test compounds in a dose of 30 mg/kg is introduced below.

[3] = in vivo; cited from earlier work
[4] = tested on: Karpas-299 cells; experiment: Efficacy in animal model of anaplastic large cell lymphoma (Karpas-299 tumors); assay type: in vivo, SCID-mice; details: 30 mg/kg daily by gavage, 23 days; ratio of average tumor volume treatment/control
Method: SCID-mice with tumors that have developed as a result of the introduction of Karpas-299 cells were used for the studies. When tumor size reached 220 mm^3 animals were divided into the treatment and control groups and were randomized by tumor size. The control animals received daily 0.3 ml of 0.5% of methylcellulose solution, animals of the treatment group—0.3 ml of 0.5% of methylcellulose suspension containing the drug in a test dose. The solutions were administered by gavage. The treatment continued for 23 days. The ratio of the average volume for the treatment/control groups (% T/C) was calculated after treatment to determine the effectiveness of inhibition of tumor growth. The analysis of the statistical significance using Dunnett's test was performed for the data collection. Effectiveness of the test compounds in a dose of 30 mg/kg is introduced below.

IC50 [1] [nM] | Compound | also measured
< 100 | Clc1ccc(Cl)c(CN2CCNc3nnc(-c4nnc(C5CCNCC5)[nH]4)cc32)c1 [drawing 218] | 
< 100 | CN1CCN(C(=O)c2ccc(NC(=O)c3cc4c(nn3)NCCN4Cc3cc(Cl)ccc3Cl)cc2)CC1 [drawing 231] | 
< 1000 | Clc1ccc(Cl)c(CN2CCNc3nnc(CNC4CCNCC4)cc32)c1 | 
< 100 | O=C(Nc1ccc(N2CCOCC2)cc1)c1cc2c(nn1)NCCN2Cc1cc(Cl)ccc1Cl [drawing 232] | 
 | CC(c1c(Cl)ccc(F)c1Cl)N1CCNc2nnc(C(=O)Nc3ccc(C(=O)N4CCCC4)cc3)cc21 (stereo not shown) [drawing 237] | % T/C [2]: <40%
 | Fc1ccc(Cl)c(CN2CCNc3nnc(-c4nnc(C5CCNCC5)[nH]4)cc32)c1Cl [drawing 240] | % T/C [2]: <40%
 | C[C@@H](Oc1cc(-c2cnn(C3CCNCC3)c2)cnc1N)c1c(Cl)ccc(F)c1Cl [Crizotinib] | penetration through the blood-brain barrier [3]: does not penetrate through the blood-brain barrier
< 1000 | CC(C)c1noc(-c2cc3c(nn2)NCCN3Cc2c(Cl)ccc(F)c2Cl)n1 | 
< 100 | Clc1ccc(Cl)c(CN2CCNc3nnc(-c4nnc(C5CCNCC5)o4)cc32)c1 [drawing 234] | 
< 100 | Fc1ccc(Cl)c(CN2CCNc3nnc(-c4ccc(N5CCOCC5)cc4)cc32)c1Cl | 
< 100 | COc1cc(N2CCC(N(C)C)CC2)ccc1Nc1cc2c(nn1)NCCN2Cc1c(Cl)ccc(F)c1Cl | 
 | Fc1ccc(Cl)c(CN2CCNc3nnc(-c4nnc(C5CCNCC5)[nH]4)cc32)c1Cl [drawing 246] | % T/C [4]: <40%
 | Clc1ccc(Cl)c(CN2CCNc3nnc(-c4nnc(C5CCNCC5)o4)cc32)c1 [drawing 241] | % T/C [2]: <40%
 | O=C(Nc1ccc(N2CCOCC2)cc1)c1cc2c(nn1)NCCN2Cc1cc(Cl)ccc1Cl [drawing 245] | % T/C [4]: <40%
 | Clc1ccc(Cl)c(CN2CCNc3nnc(-c4nnc(C5CCNCC5)[nH]4)cc32)c1 [drawing 242] | % T/C [4]: <40%
< 100 | C[C@H](c1cc(Cl)ccc1C(F)(F)F)N1CCNc2nnc(Nc3cccc(N4CCOCC4)c3)cc21 | 

IC50 [1] [nM] | Compound | also measured
 | CN1CCN(C(=O)c2ccc(NC(=O)c3cc4c(nn3)NCCN4Cc3cc(Cl)ccc3Cl)cc2)CC1 [drawing 244] | % T/C [4]: <40%
< 100 | C[C@H](c1c(Cl)ccc(F)c1Cl)N1CCNc2nnc(-c3ccc(N4CCCC4)nc3)cc21 | 
< 1000 | O=C(NCCc1ccccc1)c1cc2c(nn1)NCCN2Cc1c(Cl)ccc(F)c1Cl | 
 | O=C(Nc1ccc(N2CCOCC2)cc1)c1cc2c(nn1)NCCN2Cc1cc(Cl)ccc1Cl [drawing 239] | % T/C [2]: <40%
 | CN1CCN(C(=O)c2ccc(NC(=O)c3cc4c(nn3)NCCN4Cc3cc(Cl)ccc3Cl)cc2)CC1 [drawing 238] | % T/C [2]: <40%
< 100 | C[C@H](c1c(Cl)ccc(F)c1Cl)N1CCNc2nnc(Nc3cccc(N4CCOCC4)c3)cc21 | 
 | Clc1ccc(Cl)c(CN2CCNc3nnc(-c4nnc(C5CCNCC5)o4)cc32)c1 [drawing 247] | % T/C [4]: <40%
< 100 | Fc1ccc(Cl)c(CN2CCNc3nnc(-c4nnc(C5CCNCC5)[nH]4)cc32)c1Cl [drawing 233] | 
< 100 | CN1CCC(c2nnc(-c3cc4c(nn3)NCCN4Cc3c(Cl)ccc(F)c3Cl)o2)CC1 | 
< 100 | O=C(c1cc2c(nn1)NCCN2Cc1c(Cl)ccc(F)c1Cl)N1CCN(c2ccccc2)CC1 | 
 | Clc1ccc(Cl)c(CN2CCNc3nnc(-c4nnc(C5CCNCC5)[nH]4)cc32)c1 [drawing 236] | % T/C [2]: <40%
< 1000 | Fc1ccc(Cl)c(CN2CCNc3nnc(-c4nnc(C(F)(F)F)[nH]4)cc32)c1Cl | 
 | CC(c1c(Cl)ccc(F)c1Cl)N1CCNc2nnc(C(=O)Nc3ccc(C(=O)N4CCCC4)cc3)cc21 (stereo not shown) [drawing 243] | % T/C [4]: <40%
< 100 | CC(c1c(Cl)ccc(F)c1Cl)N1CCNc2nnc(C(=O)Nc3ccc(C(=O)N4CCCC4)cc3)cc21 (stereo not shown) [drawing 228] | 
< 100 | C[C@H](c1c(Cl)ccc(F)c1Cl)N1CCNc2nnc(-c3nc(C4CCNCC4)no3)cc21 | 
